Consider 10 molecules from ChEMBL document CHEMBL2439980, “Discovery of (S,E)-3-(2-fluorophenyl)-N-(1-(3-(pyridin-3-yloxy)phenyl)ethyl)-acrylamide as a potent and efficacious KCNQ2 (Kv7.2) opener for the treatment of neuropathic pain” (Bioorg Med Chem Lett, 2013).

Each structure is given as a SMILES string. Active and inactive are the calls of the source.

The term EC50 denotes the concentration at which the effect is half-maximal. Lower therefore signals greater potency.

The target in data set [1] is Potassium voltage-gated channel subfamily KQT member 2 (Mus musculus) (UniProt Q9Z351). Kind of data set: Induction of mouse KCNQ2 expressed in HEK293 cells at -40 mV holding potential by whole-cell patch clamp assay relative to (+/-)-N-(1-(benzo[d][1,3]dioxol-5-yl)ethyl)-3-(2-chlorophenyl)acrylamide. The data set is classed as cell-based.
Data set [2] concerns Rattus norvegicus. Kind of data set: Analgesic activity in Sprague-Dawley rat L5/L6 spinal nerve injury Chung model of neuropathic pain assessed as […] hair-induced paw withdrawal threshold at 10 mg/kg, iv measured after 15 mins relative to vehicle-treated control. The format is functional, organism-based. More on the design: dose 10 mg/kg.
Data set [3] in a line: Drug uptake in Sprague-Dawley rat brain at 1 mg/kg, iv measured after 1 hr. More on the design: dose 1 mg/kg, route intravenous. The conditions noted are these: read-out: Drug uptake. The data set is classed as ADME, organism-based.
A short description of data set [4]: Drug uptake in Sprague-Dawley rat brain at 1 mg/kg, iv measured after 15 mins. The data set is classed as ADME, organism-based. Set-up: dose 1 mg/kg, route intravenous. The conditions noted are these: read-out: Drug uptake.
The target of data set [5] is Potassium voltage-gated channel subfamily KQT member 2 (Mus musculus, UniProt Q9Z351). The experiment in a line: Induction of mouse KCNQ2 expressed in HEK293 cells at -40 mV holding potential by whole-cell patch clamp assay. The data set is classed as cell-based. For orientation: Patch clamp records ionic current or voltage across a cell membrane.
For data set [6], the system named is Rattus norvegicus. Kind of data set: Analgesic activity in rat assessed reduction formalin-induced initial pain response at 100 mg/kg, iv administered 2 mins before formalin challenge. The format is functional, organism-based. More on the design: dose 100 mg/kg.
Data set [7] relates to Rattus norvegicus. The experiment in a line: Analgesic activity in Sprague-Dawley rat L5/L6 spinal nerve injury Chung model of neuropathic pain assessed as […] hair-induced paw withdrawal threshold at 100 mg/kg, iv measured after 15 to 90 mins relative to vehicle-treated control. The format is functional, organism-based. Set-up: dose 100 mg/kg.
The subject of data set [8] is Rattus norvegicus. Kind of data set: Analgesic activity in rat assessed reduction formalin-induced second phase pain response at 100 mg/kg, iv administered 8 mins post formalin challenge. More on the design: dose 100 mg/kg. The format is functional, organism-based.
Data set [9] addresses Potassium voltage-gated channel subfamily KQT member 2 (Mus musculus) (UniProt Q9Z351). Kind of data set: Induction of mouse KCNQ2 expressed in HEK293 cells at -40 mV holding potential by whole-cell patch clamp assay relative to retigabine. The data set is classed as cell-based.
In data set [10] the test system is Rattus norvegicus. The experiment in a line: Analgesic activity in rat assessed reduction formalin-induced second phase pain response at 10 mg/kg, iv administered 8 mins post formalin challenge. Set-up: dose 10 mg/kg. The format is functional, organism-based.
Data set [11] has as its system Rattus norvegicus. The experiment in a line: Toxicity in Sprague-Dawley rat assessed as […] at 10 mg/kg, iv after 10 mins by rotorod test. Conditions: in vivo. More on the design: dose 10 mg/kg, route intravenous. The data set is classed as organism-based. On the technique in general: The rotarod test checks motor coordination on a turning rod.

Data set [12] concerns Rattus norvegicus. The experiment in a line: Analgesic activity in STZ-induced diabetic neuropathy rat model assessed as prolongation of reversal of hypersensitivity time at 3 mg/kg, iv measured after 15 to 90 mins relative to vehicle-treated control. The data set is classed as functional.
Data set [13] deals with Rattus norvegicus. The experiment in a line: Analgesic activity in rat assessed reduction formalin-induced initial pain response at 10 mg/kg, iv administered 2 mins before formalin challenge. The format is functional, organism-based. More on the design: dose 10 mg/kg.
Data set [14] concerns Rattus norvegicus. The experiment in a line: Analgesic activity in Sprague-Dawley rat L5/L6 spinal nerve injury Chung model of neuropathic pain assessed as […] hair-induced paw withdrawal threshold at 3 mg/kg, iv measured after 15 to 90 mins relative to vehicle-treated control. The format is functional, organism-based. More on the design: dose 3 mg/kg.

Sequence of Potassium voltage-gated channel subfamily KQT member 2 (Q9Z351 whole entry): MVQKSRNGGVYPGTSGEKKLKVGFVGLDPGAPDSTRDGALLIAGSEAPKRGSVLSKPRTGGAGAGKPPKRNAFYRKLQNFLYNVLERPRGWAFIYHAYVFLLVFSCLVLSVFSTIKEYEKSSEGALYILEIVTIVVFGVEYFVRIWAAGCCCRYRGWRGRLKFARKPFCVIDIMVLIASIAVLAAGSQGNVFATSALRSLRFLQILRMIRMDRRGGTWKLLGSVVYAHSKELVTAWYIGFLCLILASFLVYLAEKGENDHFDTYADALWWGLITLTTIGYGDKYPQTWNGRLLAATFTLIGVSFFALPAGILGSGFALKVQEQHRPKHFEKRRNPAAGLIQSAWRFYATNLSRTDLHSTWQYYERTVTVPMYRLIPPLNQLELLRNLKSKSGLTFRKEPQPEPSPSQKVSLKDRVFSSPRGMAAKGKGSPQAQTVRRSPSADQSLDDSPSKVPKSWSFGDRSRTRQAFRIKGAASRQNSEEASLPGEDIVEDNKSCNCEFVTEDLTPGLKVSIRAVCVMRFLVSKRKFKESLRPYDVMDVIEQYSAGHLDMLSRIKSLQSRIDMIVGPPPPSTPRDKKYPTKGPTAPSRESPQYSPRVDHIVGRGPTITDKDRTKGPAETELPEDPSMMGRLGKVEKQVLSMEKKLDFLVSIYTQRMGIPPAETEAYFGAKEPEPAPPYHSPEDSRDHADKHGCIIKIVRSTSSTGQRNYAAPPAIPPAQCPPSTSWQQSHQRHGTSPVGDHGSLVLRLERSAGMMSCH
Sequence of Potassium voltage-gated channel subfamily KQT member 2 (Mus musculus) (Q9Z351 whole entry): as above

Regarding `C[C@H](NC(=O)/C=C/c1ccccc1)c1cccc(N2CCOCC2)c1`, the Ratio in data set [1] worked out at 1.4.

`C[C@H](NC(=O)/C=C/c1cc(F)ccc1F)c1cccc(Oc2ccncc2)c1`: the outcome in the data set on Rattus norvegicus [2] was Active. In addition, in data set [3], the concentration at 1 h stood at 42 nM. Also, in data set [1], the Ratio came to 2.9. The concentration at 0.25 h in data set [4] turned out to be 160 nM. Also, it took 0.9 nM to reach a half-maximal effect in data set [5] (EC50).

Take `C[C@H](NC(=O)/C=C/c1ccccc1F)c1cccc(-c2ccc(F)nc2)c1`: the Ratio in data set [1] worked out at 0.85.

With `NCC1(CC(=O)O)CCCCC1`, the result in the data set on Rattus norvegicus [6] was inactive. Besides, the outcome with Rattus norvegicus [7] and in the data set with Rattus norvegicus [8] was Active.

For `C[C@H](NC(=O)/C=C/c1ccccc1Cl)c1ccc2c(c1)OCO2`, in [1], the Ratio was determined as 1.1.

On to `C[C@@H](NC(=O)/C=C/c1cc(F)ccc1F)c1cccc(Oc2ccncc2)c1`, for which the EC50 in [5] was above 10000 nM.

For the molecule `C[C@H](NC(=O)/C=C/c1ccccc1F)c1ccc2c(c1)N(CC1CC1)CCO2`, the Ratio in data set [1] was found to be 1.8.

Regarding `C[C@H](NC(=O)/C=C/c1ccccc1F)c1cccc(Oc2cccnc2)c1`, the outcome with Rattus norvegicus [2], in the data set on Rattus norvegicus [10] and in the data set with Rattus norvegicus [13] was Active. Further, in [9], the Efficacy was 38%. In addition, the concentration at 1 h in data set [3] came out at 560 nM. Besides, in the data set on Rattus norvegicus [11], the Activity result is recorded as “Non-toxic”. The Ratio in data set [1] turned out to be 2.2. Also, in data set [4], the concentration at 0.25 h was 2000 nM. Besides, the Time in the data set with Rattus norvegicus [12] was determined as 15 min. The molecule further showed an EC50 in [5] of 2.4 nM. In the data set with Rattus norvegicus [14], the outcome was inactive.

`C[C@@H](NC(=O)/C=C/c1ccccc1F)c1cccc(Oc2cccnc2)c1`: the concentration for a half-maximal effect (EC50) in data set [5] is above 10000 nM.

In the case of `CCOC(=O)Nc1ccc(NCc2ccc(F)cc2)cc1N`, in [1], the Ratio is 1.6.
